# According to PMC4998035 (International Journal of Nanomedicine, 2016):
# Where two headings read alike, the source gives them in different places.
# Columns and labels:
# [1] = in vitro; cited from earlier work
# [2] = in vivo; cited from earlier work
# [3] = Solubility of FK506 in NIC solution; assay type: physicochemical
# [4] = In vitro percutaneous permeation, vertical Franz diffusion cell; assay type: in vitro ADME, Sprague Dawley rats; settings: 20% NIC solution without FK506; data not shown
Compound,Immunosuppressant activity relative to cyclosporine A [1],Immunosuppressant activity relative to cyclosporine A [2],Solubility in 30% (w/v) NIC solution relative to that in water ([3]; 30% (w/v) NIC vs water),"solubility at 3 days ([3]; water (0% (w/v) NIC), 37 °C, water, thermodynamic from solid)",Permeation of NIC into skin [4]
"C=CC[C@@H]1/C=C(\C)C[C@H](C)C[C@H](OC)[C@H]2O[C@@](O)(C(=O)C(=O)N3CCCC[C@H]3C(=O)O[C@H](/C(C)=C/[C@@H]3CC[C@@H](O)[C@H](OC)C3)[C@H](C)[C@@H](O)CC1=O)[C@H](C)C[C@@H]2OC [FK506, Tacrolimus]",30–100 fold,10–20 fold,532 fold,0.69 ± 0.24 µg/mL,–
"NC(=O)c1cccnc1 [NIC, nicotinamide]",–,–,–,–,easily permeate into skin
